In this assay the test system is B6C3F1 mice, B16 melanoma ip, median survival T/C. Nature of the assay: NCI In Vivo Anticancer Drug Screen. Data for tumor model B16 Melanoma (intraperitoneal) in B6C3F1 mice. The settings on record: endpoint: median survival time, schedule: Q01DX009 (ip), higher = longer survival. The protocol:
The antitumor activity of compounds was measured in mice bearing transplantable tumors. Survival or tumor size were measured and the results are expressed as the measurement made in the treated group (T) divided by the measurement made in the vehicle treated control group (C). The tumor model used in this assay is B16 Melanoma (intraperitoneal) in B6C3F1 mice

The mark [1] stands for this setting: dose: 6.25 mg/kg/injection, vehicle: Klucel (hydroxypropylcellulose) (HPC).
The mark [2] stands for this setting: dose: 12.5 mg/kg/injection, vehicle: Klucel (hydroxypropylcellulose) (HPC).
[3] abbreviates: dose: 25.0 mg/kg/injection, vehicle: Klucel (hydroxypropylcellulose) (HPC).
The mark [4] stands for this setting: dose: 100.0 mg/kg/injection, vehicle: Klucel (hydroxypropylcellulose) (HPC).
The mark [5] stands for this setting: dose: 50.0 mg/kg/injection, vehicle: saline.

“And” between values parts separate entries of the source, which are not always exact repeats. Identical values can stand only once. Toxic doses and inconclusive results are not listed.

Turning to `CC(C)(C)OC(=O)NC(CCCCNC(=O)C(F)(F)F)C(=O)O` (configuration not stated), the T/C by setting is: under setting [1], 109 % of control; under setting [2], 99 % of control; under setting [3], 89 % of control and 99 % of control; (dose: 50.0 mg/kg/injection, vehicle: Klucel (hydroxypropylcellulose) (HPC)) 88 % of control and 96 % of control; under setting [4], 96 % of control.

For `CCCCOCN(COCCCC)C12CC3CC(CC(C3)C1)C2`, the T/C reads like this: (dose: 12.5 mg/kg/injection, vehicle: saline with Tween-80) 108 % of control and 107 % of control; (dose: 25.0 mg/kg/injection, vehicle: saline with Tween-80) 104 % of control and 105 % of control; (dose: 50.0 mg/kg/injection, vehicle: saline with Tween-80) 109 % of control and 100 % of control; (dose: 100.0 mg/kg/injection, vehicle: saline with Tween-80) 104 % of control and 106 % of control; (dose: 200.0 mg/kg/injection, vehicle: saline with Tween-80) 105 % of control.

For `CCN(CC)CCC(=O)c1ccccc1`, the T/C was 97 % of control (dose: 3.12 mg/kg/injection, vehicle: suspension in saline); 98 % of control (dose: 6.25 mg/kg/injection, vehicle: suspension in saline); 104 % of control (dose: 12.5 mg/kg/injection, vehicle: suspension in saline); 107 % of control (dose: 25.0 mg/kg/injection, vehicle: suspension in saline); 124 % of control (dose: 50.0 mg/kg/injection, vehicle: suspension in saline).

Turning to `CCCCC(NC(=O)CNC(=O)OCc1ccccc1)C(=O)O` (configuration not stated), the T/C under setting [4] is 92 % of control; the T/C (dose: 200.0 mg/kg/injection, vehicle: Klucel (hydroxypropylcellulose) (HPC)) is 96 % of control; the T/C (dose: 400.0 mg/kg/injection, vehicle: Klucel (hydroxypropylcellulose) (HPC)) is 92 % of control.

In the case of `CN(C)CC1CCCC(CN(C)C)C1=O` (configuration not stated), the T/C is 103 % of control under setting [5]; 97 % of control (dose: 100.0 mg/kg/injection, vehicle: saline); 100 % of control (dose: 200.0 mg/kg/injection, vehicle: saline).

In the case of `O=C1c2ccccc2C(=O)c2c(NCCNCCO)ccc(O)c21`, the T/C is, setting by setting: (dose: 2.5 mg/kg/injection, vehicle: suspension in saline) 118 % of control; (dose: 20.0 mg/kg/injection, vehicle: suspension in saline) 153 % of control; (dose: 40.0 mg/kg/injection, vehicle: suspension in saline) 184 % of control; (dose: 80.0 mg/kg/injection, vehicle: suspension in saline) 190 % of control.

Turning to `CCOC(=O)c1c[nH]c2oc(/C=N/N3CC(CN4CCOCC4)OC3=O)cc2c1=O` (configuration not stated), the T/C reads like this: (dose: 12.5 mg/kg/injection, vehicle: saline) 112 % of control; (dose: 25.0 mg/kg/injection, vehicle: saline) 118 % of control; under setting [5], 117 % of control.

On to `O=NN(CCCl)C(=O)Oc1cc(Cl)c(Cl)cc1Cl`, for which the T/C was 99 % of control (dose: 3.12 mg/kg/injection, vehicle: Klucel (hydroxypropylcellulose) (HPC)); 99 % of control under setting [1]; 188 % of control under setting [2]; 169 % of control and 205 % of control under setting [3].

The values are drawn from PubChem BioAssay AID200 (DTP/NCI, 2004).
